Laboratory results: patent US20100075907A1, “NEUROMEDIN U RECEPTOR AGONISTS AND USES THEREOF” (priority 2006, published 2010)

Assay: in vitro
Conditions: human, plasma

Which half-life at 1 μM does the source give for “H-FRVDEEFQSPFASQSRGYFLFRPRN-NH2 [hNMU-25, reference compound]” here?
Its half-life at 1 μM is under 16 h.
